Experimental data as given in US10220029B2, “Pharmaceutical composition comprising glutarimide derivatives and use thereof in the treatment of eosinophilic diseases” (OBSCHESTVO S ORGANICHENNOI OTVETSTVENNOSTIYU …, priority 2013, dated 2019).
Marks after values point to notes of the source that are not given here.

Tests used:
Type in all cases: in vivo, guinea pig
[1] = system: model of bronchial asthma in guinea pigs; test: Content of cell elements in BAL in the model of bronchial asthma in guinea pigs
Protocol: Bronchial asthma in guinea pigs was induced by a standard method [Ricciardolo F L, Nijkamp F, De Rose V, Folkerts G. The guinea pig as an animal model for asthma// Current Drug Targets. 2008 June; 9(6):452-65]. The animals were immunized by one parenteral administration of 0.5 mL of a solution comprising 100 μg/mL ovalbumin (Sigma) and 100 mg/mL aluminium hydroxide. Intact animals received a physiological saline solution in an amount of 0.5 mL.
On days 29, 30 and 31, hyperactivity of the respiratory airways was provoked by inhalation administration of ovalbumin in ascending concentrations of 0.1, 0.3, and 0.5 mg/mL on days 1, 2, and 3 of the provocation, respectively. The inhalation lasted 5 minutes or until asphyxia symptoms became apparent (fall to one side). On day 32, the animals received a challenging dose of ovalbumin (1 mg/mL) for 5 minutes, while assessing a bronchospastic reaction.
The studied compounds were administered to the animals once daily every day for 6 or 10 days; the administration was terminated two days before the administration of the challenging dose of antigen.
The bronchoalveolar lavage (BAL) and cardiac cavity blood were derived from the animals 24 hours after administration of the challenging dose. The BAL was collected under anesthesia by lavaging the lungs with 5 mL of a physiological saline solution heated to 37° C. through the trachea, using a syringe dosing device.
The absolute number of cell elements in 1 μL of the lavage (cytosis) was counted in the bronchoalveolar lavage, using the Goryaev camera. Then, the BAL was centrifuged at 200 g for 10 minutes. The residue was used to prepare swabs that were fixed in methanol and stained according to Romanovsky-Giemsa to count endopulmonary cytogram.
The study comprised 3 experiments, wherein the first one was directed to the evaluation of the effect of claimed compounds 1-6 on the cell composition of the BAL, the second and the third experiments were aimed at evaluating the effect of compounds 1 and 2 on the cell composition of the BAL, the cell composition of the blood, and on the bronchospasm severity.

[2] = system: model of allergic rhinitis in guinea pigs; test: Clinical manifestations of allergic rhinitis in guinea pigs (sneezes, nose scratchings); conditions: 14 mg/kg intragastric, 3 times; 2 hours after last ovalbumin; n = 8
Protocol: (§1) The model of allergic rhinitis in guinea pigs was realized by a standard method [Vishnu N. Thakare, M. M. Osama, Suresh R. Naik. […] 2013 September; 17(1):18-25].
(§2) Guinea pigs (250-300 g) were immunized with 4-time (on days 0, 7, 14, and 21) intragastric administration of ovalbumin (100 μg/pig) and aluminium hydroxide (5 mg/pig), both of which were diluted and suspended in a physiological saline solution. […], a solution of ovalbumin (60 mg/mL) was administered intranasally to each nostril of the animals at a dose 20 μL. On day 35, the animals received subcutaneously an ovalbumin solution (200 μg/mL, 25 μL); the animal back was previously shaved in the site of administration. Swelling and redness at the injection site served as a support of sensibilisation. On day 42 of the study, an ovalbumin solution (60 mg/mL, 20 μL/nostril) was administered intranasally. A group of pseudoimmunized animals was formed to control the formation of exactly allergic inflammation: on days 0, 7, 14, and 21, the pigs received a solution of aluminium hydroxide (5 mg/pig), and on days 28 and 35, they received a physiological saline solution, and on day 42, a solution of ovalbumin (60 mg/mL, 20 μL/nostril).
(§3) The studied compounds (14 mg/kg) were administered 3 times by the intragastric route: 48, 24, and 1 hour before the last administration of ovalbumin. The reference preparation, dexamethasone, was administered one time by the intragastric route, 3 hours before the last intranasal administration of ovalbumin.
(§4) Clinical manifestations, such as the number of sneezes and nose scratchings, were registered for 2 hours after the last administration of ovalbumin. Nasal lavage was taken 24 hours after the last administration of ovalbumin, and in this lavage, the total lymphocyte count and leukocyte formula were determined. The number of guinea pigs in a group was 8.

[3] = system: model of allergic rhinitis in guinea pigs; test: Content of cell elements in the nasal lavage in the model of allergic rhinitis in guinea pigs; conditions: 14 mg/kg intragastric, 3 times; nasal lavage 24 hours after last ovalbumin; n = 8
Protocol: as §1, §2, §3, §4

[4] = system: model of leukotriene-induced eosinophilic lung inflammation in guinea pigs; test: Content of cell elements in BAL in the model of leukotriene-induced eosinophilic lung inflammation in guinea pigs; conditions: four times, BAL 48 hours after LTD4, n = 8
Text: The model of leukotriene-induced eosinophilic lung inflammation in guinea pigs was realized by a standard method [Underwood DC1, Osborn R R, Newsholme S J, Torphy T J, Hay D W. Persistent airway eosinophilia after leukotriene (LT) D4 administration in the guinea pig: modulation by the LTD4 receptor antagonist, pranlukast, or an interleukin-5 monoclonal antibody// Am J Respir Crit Care Med. 1996 October; 154(4 Pt 1):850-7]. A solution of leukotriene D4 (LTD4, Cayman Chemical, USA) at a concentration of […] (a flow rate of 250 mL/hr) was inhaled to male guinea pigs (250-300 g) under conditions of a double-chamber plethysmograph (Emka Technologies, France) for one minute. The studied compound was administered to the animals by the intragastric route four times: 24 hours and 1 hour before and 24 hours and 45 hours after the inhalation of LTD4. The reference preparation, montelukast (0.8 mg/kg), was administered one time by the intragastric route one hour before the inhalation of LTD4. Bronchoalveolar lavage was taken 48 hours after the inhalation of LTD4, and the total lymphocyte count and leukocyte formula were determined in the lavage. The number of guinea pigs in a group was 8.

[5] = Table 4, 14 mg/kg, 10 times of administration, n = 9
[6] = Table 5 Experiment No. 1, 0.045 mg/kg, 10 times, n = 8
[7] = Table 5 Experiment No. 1, 0.14 mg/kg, 10 times, n = 8
[8] = Table 5 Experiment No. 1, 14 mg/kg, 10 times, n = 8

O=C1CCCC(=O)N1CCc1cnc[nH]1 [Compound 1, 1-(2-(1H-imidazol-4-yl)ethyl)piperidine-2,6-dione]
Eosinophils in BAL [1, 5]: 0.89 ± 0.23*& 10^9/L
Lymphocytes in BAL [1, 5]: 0.70 ± 0.13* 10^9/L
Monocytes in BAL [1, 5]: 0.35 ± 0.09* 10^9/L
Neutrophils in BAL [1, 5]: 0.36 ± 0.09 10^9/L
Cytosis in BAL [1, 6]: 12.8 ± 0.2* 10^9/L
Eosinophils in BAL [1, 6]: 0.45 ± 0.07*& 10^9/L
Lymphocytes in BAL [1, 6]: 0.10 ± 0.04& 10^9/L
Monocytes in BAL [1, 6]: 0.52 ± 0.092* 10^9/L
Neutrophils in BAL [1, 6]: 0.19 ± 0.08 10^9/L
Cytosis in BAL [1, 7]: 10.5 ± 0.2*& 10^9/L
Eosinophils in BAL [1, 7]: 0.41 ± 0.10*& 10^9/L
Lymphocytes in BAL [1, 7]: 0.13 ± 0.04& 10^9/L
Monocytes in BAL [1, 7]: 0.43 ± 0.076* 10^9/L
Neutrophils in BAL [1, 7]: 0.07 ± 0.01 10^9/L
Cytosis in BAL [1, 8]: 14.6 ± 0.3* 10^9/L
Eosinophils in BAL [1, 8]: 0.45 ± 0.12*& 10^9/L
Lymphocytes in BAL [1, 8]: 0.15 ± 0.026*& 10^9/L
Monocytes in BAL [1, 8]: 0.7 ± 0.16* 10^9/L
Neutrophils in BAL [1, 8]: 0.15 ± 0.03* 10^9/L
Number of nose scratchings/2 hours [2]: 13.9 ± 2.6 &
Number of sneezes/2 hours [2]: 5.9 ± 1.1 &
Eosinophils, content of cell elements in 1 μL of nasal lavage [3]: 521 ± 129& in 1 μL of nasal lavage
Leukocytes, content of cell elements in 1 μL of nasal lavage [3]: 1300 ± 254& in 1 μL of nasal lavage
Lymphocytes, content of cell elements in 1 μL of nasal lavage [3]: 6 ± 6 in 1 μL of nasal lavage
Macrophages, content of cell elements in 1 μL of nasal lavage [3]: 405 ± 130 in 1 μL of nasal lavage
Neutrophils, content of cell elements in 1 μL of nasal lavage [3]: 243 ± 58*& in 1 μL of nasal lavage
Eosinophils, content of cell elements in 1 μL of BAL ([4]; 0.14 mg/kg intragastric): 916 ± 144*& in 1 μL of BAL
Leukocytes, content of cell elements in 1 μL of BAL ([4]; 0.14 mg/kg intragastric): 2638 ± 463*& in 1 μL of BAL
Lymphocytes, content of cell elements in 1 μL of BAL ([4]; 0.14 mg/kg intragastric): 112 ± 27 in 1 μL of BAL
Macrophages, content of cell elements in 1 μL of BAL ([4]; 0.14 mg/kg intragastric): 1360 ± 323 in 1 μL of BAL
Neutrophils, content of cell elements in 1 μL of BAL ([4]; 0.14 mg/kg intragastric): 249 ± 50 in 1 μL of BAL
Eosinophils, content of cell elements in 1 μL of BAL ([4]; 1.4 mg/kg intragastric): 856 ± 288*& in 1 μL of BAL
Leukocytes, content of cell elements in 1 μL of BAL ([4]; 1.4 mg/kg intragastric): 3413 ± 1022 in 1 μL of BAL
Lymphocytes, content of cell elements in 1 μL of BAL ([4]; 1.4 mg/kg intragastric): 144 ± 89 in 1 μL of BAL
Macrophages, content of cell elements in 1 μL of BAL ([4]; 1.4 mg/kg intragastric): 2134 ± 705 in 1 μL of BAL
Neutrophils, content of cell elements in 1 μL of BAL ([4]; 1.4 mg/kg intragastric): 279 ± 97 in 1 μL of BAL
Eosinophils, content of cell elements in 1 μL of BAL ([4]; 14 mg/kg intragastric): 580 ± 124*& in 1 μL of BAL
Leukocytes, content of cell elements in 1 μL of BAL ([4]; 14 mg/kg intragastric): 2250 ± 373*& in 1 μL of BAL
Lymphocytes, content of cell elements in 1 μL of BAL ([4]; 14 mg/kg intragastric): 71 ± 28 in 1 μL of BAL
Macrophages, content of cell elements in 1 μL of BAL ([4]; 14 mg/kg intragastric): 1444 ± 258 in 1 μL of BAL
Neutrophils, content of cell elements in 1 μL of BAL ([4]; 14 mg/kg intragastric): 155 ± 36 in 1 μL of BAL
